Drawing on US10323018B2 (Millennium Pharmaceuticals, Inc., priority 2015, dated 2019), this text covers inhibition, IC50 and viability for 25 compounds.

One experiment addresses hNAMPT protein (Homo sapiens (Human), UniProt P43490). Briefly: NAMPT enzyme assay (TR-FRET/HTRF with BodiPY ligand). It counts as binding. The conditions noted are these: for inhibition at 1 µM: NAMPT inhibition at compound concentration 1 μM; for IC50: NAMPT inhibition, IC50 range class. The gist of the method: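 Ligand displacement by TR-FRET: BodiPY emission (520 nm) over terbium (486 nm) after 320 nm excitation. Compound, BodiPY ligand, hNAMPT and anti-6His-Tb incubated 1 h at room temperature, dark, at pH 7.5. Percent inhibition computed versus DMSO; concentration-response curves fitted for IC50.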
Background: In TR-FRET formats the signal depends on donor and acceptor labels being close together.

The next experiment concerns PC3 cells. Briefly: PC3 growth inhibition (Cell-titer glo, 72 hours). It counts as cell-based. The conditions noted are these: Homo sapiens, PC-3, 72 h, read-out: Percent Viability, PC3 cells, compound concentration 1.667 μM, 72 hours. The gist of the method:
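After 72 h compound treatment in AIM serum-free medium (37 °C, 5% CO2), viability of overnight-plated PC3 cells (8×10^4 cells/ml, RPMI1640-maintained) is read by CellTiter-Glo luminescence versus DMSO. Curves give GI50, LD50 or single-concentration % remaining viability.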

hNAMPT protein, sequence (P43490 whole entry): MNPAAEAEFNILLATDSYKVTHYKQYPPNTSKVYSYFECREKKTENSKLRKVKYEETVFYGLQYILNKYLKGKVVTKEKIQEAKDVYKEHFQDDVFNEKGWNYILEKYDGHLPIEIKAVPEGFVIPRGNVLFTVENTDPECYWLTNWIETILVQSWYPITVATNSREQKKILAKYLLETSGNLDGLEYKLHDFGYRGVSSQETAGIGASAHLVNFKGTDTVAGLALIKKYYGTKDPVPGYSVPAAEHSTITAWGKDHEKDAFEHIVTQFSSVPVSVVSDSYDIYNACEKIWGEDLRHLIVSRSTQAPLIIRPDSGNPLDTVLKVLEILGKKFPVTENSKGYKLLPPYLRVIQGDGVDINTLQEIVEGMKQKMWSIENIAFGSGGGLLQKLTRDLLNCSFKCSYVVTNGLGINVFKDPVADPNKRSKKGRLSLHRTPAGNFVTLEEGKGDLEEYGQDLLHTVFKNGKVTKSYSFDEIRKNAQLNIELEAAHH

For the compound `CCOc1cc(-c2ccc(C)nc2)nc2cc(C(=O)NCc3nc4cnccc4[nH]3)ccc12` [Compound I-167, 4-ethoxy-N-(1H-imidazo[4,5-c]pyridin-2-ylmethyl)-2-(6-methylpyridin-3-yl)quinoline-7-carboxamide], on hNAMPT protein (read-out: Percent Inhibition), the inhibition – broadly, the drop in the measured response relative to a control, in per cent – at 1 µM was more than 99%. In addition, on hNAMPT protein, the IC50 – broadly, the midpoint of a concentration-inhibition curve – was less than 10 nM. For the same compound, in the experiment on PC3 cells, the viability at 1.667 µM came to 2%.
As for `CCOc1cc(-c2ccc(C)nc2)nc2cc(C(=O)NCCc3nnc[nH]3)ccc12` [Compound I-168, 4-ethoxy-2-(6-methylpyridin-3-yl)-N-[2-(4H-1,2,4-triazol-3-yl)ethyl]quinoline-7-carboxamide], on hNAMPT protein (read-out: Percent Inhibition), the inhibition at 1 µM was found to be 95%. At hNAMPT protein, this compound registered an IC50 of 10 to 50 nM. Besides, in the experiment on PC3 cells, the viability at 1.667 µM was 2%.
The like results for `CCOc1cc(-c2ccc(C)nc2)nc2cc(C(=O)NCCc3c[nH]nn3)ccc12` [Compound I-169, 4-ethoxy-2-(6-methylpyridin-3-yl)-N-[2-(1H-1,2,3-triazol-4-yl)ethyl]quinoline-7-carboxamide] were, in that order, 97%, 10 to 50 nM and 3%.
For `CCOc1cc(-c2ccc(F)cc2OC)nc2cc(C(=O)NCCc3ncn[nH]3)ccc12` [Compound I-170, 4-ethoxy-2-(4-fluoro-2-methoxyphenyl)-N-[2-(1H-1,2,4-triazol-5-yl)ethyl]quinoline-7-carboxamide], in that order: 93%, 50 to 100 nM and 2%.
As for `CCCc1cc(-c2ccc(F)cc2)nc2cc(C(=O)NCCCc3ncn[nH]3)ccc12` [Compound I-171, 2-(4-fluorophenyl)-4-propyl-N-[3-(4H-1,2,4-triazol-3-yl)propyl]quinoline-7-carboxamide], at hNAMPT protein (read-out: Percent Inhibition), the inhibition at 1 µM is 97%. Also, on hNAMPT protein, the IC50 is 10 to 50 nM. Moreover, in the experiment on PC3 cells, the viability at 1.667 µM amounted to 2%.
Turning to `CCOc1cc(-c2ccnc(C)c2)nc2cc(C(=O)NCCc3nnc[nH]3)ccc12` [Compound I-172, 4-ethoxy-2-(2-methylpyridin-4-yl)-N-[2-(4H-1,2,4-triazol-3-yl)ethyl]quinoline-7-carboxamide], at hNAMPT protein (read-out: Percent Inhibition), the inhibition at 1 µM worked out at 71%. On hNAMPT protein, this compound had an IC50 of more than 100 nM. In addition, in the experiment with PC3 cells, the viability at 1.667 µM amounted to 6%.
The like results for `CCOc1cc(-c2ccc(C)nc2)nc2cc(C(=O)NCCCc3nnc[nH]3)ccc12` [Compound I-173, 4-ethoxy-2-(6-methylpyridin-3-yl)-N-[3-(4H-1,2,4-triazol-3-yl)propyl]quinoline-7-carboxamide] were, in that order, 98%, 10 to 50 nM and 2%.
For `CCOc1cc(-c2ccc(C)nc2OC)nc2cc(C(=O)NCc3nc4cnccc4[nH]3)ccc12` [Compound I-174, 4-ethoxy-N-(1H-imidazo[4,5-c]pyridin-2-ylmethyl)-2-(2-methoxy-6-methylpyridin-3-yl)quinoline-7-carboxamide], in that order: more than 99%, less than 10 nM and 1%.
In the case of `CCOc1cc(-c2ccc(Cl)s2)nc2cc(C(=O)NCc3nc4cnccc4[nH]3)ccc12` [Compound I-175, 2-(5-chloro-2-thienyl)-4-ethoxy-N-(1H-imidazo[4,5-c]pyridin-2-ylmethyl)quinoline-7-carboxamide], at hNAMPT protein (NAMPT inhibition at compound concentration 0.33 μM, read-out: Percent Inhibition), the inhibition at 0.33 µM was found to be 98%. For the same compound, the IC50 against hNAMPT protein was less than 10 nM. Also, in the experiment on PC3 cells, the viability at 1.667 µM was found to be 2%.
With `CCOc1cc(-c2ccc(Cl)s2)nc2cc(C(=O)NCCc3cnn[nH]3)ccc12` [Compound I-176, 2-(5-chloro-2-thienyl)-4-ethoxy-N-[2-(1H-1,2,3-triazol-5-yl)ethyl]quinoline-7-carboxamide], the inhibition at 1 µM on hNAMPT protein (read-out: Percent Inhibition) turned out to be 99%. Besides, on hNAMPT protein, the IC50 is 10 to 50 nM. Further, the viability at 1.667 µM in the experiment on PC3 cells turned out to be 4%.
For `CCOc1cc(-c2ccc(Cl)s2)nc2cc(C(=O)NCCc3nnc[nH]3)ccc12` [Compound I-177, 2-(5-chloro-2-thienyl)-4-ethoxy-N-[2-(4H-1,2,4-triazol-3-yl)ethyl]quinoline-7-carboxamide], in that order: 97%, 10 to 50 nM and 3%.
For `CCOc1cc(-c2ccc(F)cc2)nc2cc(C(=O)NCc3nc4cnccc4n3C)ccc12` [Compound I-178, 4-ethoxy-2-(4-fluorophenyl)-N-[(1-methyl-1H-imidazo[4,5-c]pyridin-2-yl)methyl]quinoline-7-carboxamide], in that order: 99%, less than 10 nM and 2%.
Take `CCOc1cc(-c2cc(F)ccc2OC)nc2cc(C(=O)NCc3nc4cnccc4n3C)ccc12` [Compound I-179, 4-ethoxy-2-(5-fluoro-2-methoxyphenyl)-N-[(1-methyl-1H-imidazo[4,5-c]pyridin-2-yl)methyl]quinoline-7-carboxamide]: the inhibition at 1 µM at hNAMPT protein (read-out: Percent Inhibition) turned out to be 95%. This compound also registered an IC50 against hNAMPT protein of 50 to 100 nM. Moreover, the viability at 1.667 µM in the experiment on PC3 cells was determined as 2%.
The like results for `CCOc1cc(-c2cccnc2OC)nc2cc(C(=O)NCCc3nnc[nH]3)ccc12` [Compound I-180, 4-ethoxy-2-(2-methoxypyridin-3-yl)-N-[2-(4H-1,2,4-triazol-3-yl)ethyl]quinoline-7-carboxamide] were, in that order, 83%, more than 100 nM and 2%.
As to `CCOc1cc(-c2ccnc(C)c2)nc2cc(C(=O)NCCc3cnn[nH]3)ccc12` [Compound I-181, 4-ethoxy-2-(2-methylpyridin-4-yl)-N-[2-(1H-1,2,3-triazol-5-yl)ethyl]quinoline-7-carboxamide], the inhibition at 1 µM on hNAMPT protein (read-out: Percent Inhibition) was 86%. Moreover, on hNAMPT protein, the IC50 was more than 100 nM. Further, the viability at 1.667 µM with PC3 cells worked out at 9%.
For `CCOc1cc(-c2cc(F)ccc2OC)nc2cc(C(=O)NCCc3nnc[nH]3)ccc12` [Compound I-182, 4-ethoxy-2-(5-fluoro-2-methoxyphenyl)-N-[2-(4H-1,2,4-triazol-3-yl)ethyl]quinoline-7-carboxamide], in that order: 77%, more than 100 nM and 5%.
For `CCOc1cc(-c2ccc(C)nc2OC)nc2cc(C(=O)NCCCc3nc[nH]n3)ccc12` [Compound I-183, 4-ethoxy-2-(2-methoxy-6-methylpyridin-3-yl)-N-[3-(1H-1,2,4-triazol-3-yl)propyl]quinoline-7-carboxamide], in that order: 94%, 50 to 100 nM and 2%.
The like results for `CCOc1cc(-c2cc(F)ccc2OC)nc2cc(C(=O)NCCc3cnn[nH]3)ccc12` [Compound I-184, 4-ethoxy-2-(5-fluoro-2-methoxyphenyl)-N-[2-(1H-1,2,3-triazol-5-yl)ethyl]quinoline-7-carboxamide] were, in that order, 91%, 50 to 100 nM and 6%.
In the case of `CCOc1cc(-c2ccc(OC)nc2)nc2cc(C(=O)NCCc3c[nH]nn3)ccc12` [Compound I-185, 4-ethoxy-2-(6-methoxypyridin-3-yl)-N-[2-(1H-1,2,3-triazol-4-yl)ethyl]quinoline-7-carboxamide], the inhibition at 1 µM on hNAMPT protein (read-out: Percent Inhibition) stood at 98%. At hNAMPT protein, this compound registered an IC50 of 10 to 50 nM. The viability at 1.667 µM with PC3 cells came out at 2%.
Consider `CCOc1cc(-c2ccc(OC)nc2)nc2cc(C(=O)NCCc3nc[nH]n3)ccc12` [Compound I-186, 4-ethoxy-2-(6-methoxypyridin-3-yl)-N-[2-(1H-1,2,4-triazol-3-yl)ethyl]quinoline-7-carboxamide], for which, at hNAMPT protein (read-out: Percent Inhibition), the inhibition at 1 µM was determined as 99%. Also, on hNAMPT protein, the IC50 was 10 to 50 nM. In addition, in the experiment on PC3 cells, the viability at 1.667 µM was 4%.
For `CCOc1cc(-c2cc(F)ccc2OC)nc2cc(C(=O)NCc3nc4cnccc4[nH]3)ccc12` [Compound I-187, 4-ethoxy-2-(5-fluoro-2-methoxyphenyl)-N-(1H-imidazo[4,5-c]pyridin-2-ylmethyl)quinoline-7-carboxamide], in that order: more than 99%, less than 10 nM and 3%.
For `CCOc1cc(-c2cc(OC)ncc2F)nc2cc(C(=O)NCc3nc4cnccc4[nH]3)ccc12` [Compound I-188, 4-ethoxy-2-(5-fluoro-2-methoxypyridin-4-yl)-N-(1H-imidazo[4,5-c]pyridin-2-ylmethyl)quinoline-7-carboxamide], in that order: 99%, less than 10 nM and 3%.
The like results for `CCOc1cc(-c2cc(OC)ncc2F)nc2cc(C(=O)NCCc3cnn[nH]3)ccc12` [Compound I-189, 4-ethoxy-2-(5-fluoro-2-methoxypyridin-4-yl)-N-[2-(1H-1,2,3-triazol-5-yl)ethyl]quinoline-7-carboxamide] were, in that order, 74%, more than 100 nM and more than 99%.
Consider `CCOc1cc(-c2cccnc2OC)nc2cc(C(=O)NCCc3cnn[nH]3)ccc12` [Compound I-190, 4-ethoxy-2-(2-methoxypyridin-3-yl)-N-[2-(1H-1,2,3-triazol-5-yl)ethyl]quinoline-7-carboxamide], for which the inhibition at 1 µM at hNAMPT protein (read-out: Percent Inhibition) stood at 94%. For the same compound, the IC50 at hNAMPT protein is 50 to 100 nM. Besides, the viability at 1.667 µM with PC3 cells turned out to be 5%.
The like results for `CCOc1cc(-c2ccnc(OC)c2)nc2cc(C(=O)NCCc3nnc[nH]3)ccc12` [Compound I-191, 4-ethoxy-2-(2-methoxypyridin-4-yl)-N-[2-(4H-1,2,4-triazol-3-yl)ethyl]quinoline-7-carboxamide] were, in that order, 79%, more than 100 nM and 10%.
